Read-outs that look alike come from different tables or passages of the source.
Tests used:
[1] = target: T1, ATR/ATRIP enzyme (Homo sapiens, UniProt Q13535); experiment: ATR enzyme activity experiment (HTRF); type: biochemical; details: for IC50: HTRF, p53 substrate, 30 minutes at room temperature; for inhibition at 0.05 µM: read-out: Inh %, inhibitory effects on ATR kinase activity at 50 nM
T1 construct: purchased Eurofins 14-953
Experimental: The test compound was diluted to a 4× final concentration with reaction buffer (25 mM HEPES (pH8.0), 10 mM MnCl2, 1% glycerol, 0.01% Brij-35, 5 mM DTT and 0.1% BSA). […] The mixture was centrifuged at 1000 rpm for 1 minute, and reacted at room temperature protected from light for 30 minutes. Then 5 μL of EDTA stop solution (250 mM) was added to stop the reaction. […] Data were analyzed using GraphPad Prism6.0, and fitted using the curve equation: Y=Bottom+(Top−Bottom)/(1+10^((Log IC50−X)*HillSlope)) and IC50 values were calculated.

[2] = system: human prostate cancer cell DU145; experiment: MTT proliferation assay, DU145; type: cell-based; details: for IC50: Homo sapiens, DU-145, 96 h, 4 days, read-out: IC50 (nM), inhibition of proliferation of DU145
Experimental: The cells were digested by trypsinase and centrifuged at 800 rpm for 5 minutes, the supernatant was discarded, and the residual was resuspended with fresh medium (DMEM medium+10% FBS+non-essential amino acid) and counted. The cells were seeded into 96-well cell culture plate with a density of 2000 cells per well and incubated overnight in a 5% CO2 incubator at 37° C. […] 5 μL of each concentration was added to 120 μL of medium (25 times diluted) and mixed by shaking. The overnight cell plates were taken and the culture medium was removed, 195 μL of fresh medium was added to each well, and 5 μL of diluted medium containing the corresponding concentration of the test compound was added respectively (the final concentrations of compounds are shown in Table 3, the final concentration of DMSO is 1%), and the culture plate was then placed in a 5% CO2 incubator at 37° C. for 4 days. After removing the original solution, 100 μL of fresh serum-free DMEM medium containing MTT (0.5 mg/mL) was added to each well, the culture was continued. […] GraphPad Prism 6.0 was used to analyze the data. The inhibitory activity of compounds on cell proliferation was plotted based on cell viability and the logarithm of compound concentration. Cell viability %=(ODcompound−ODbackground)/(ODDMSO−ODbackground)×100.

[3] = system: human lung cancer cell NCI-H460; experiment: MTT proliferation assay, NCI-H460; type: cell-based; details: for IC50: Homo sapiens, NCI-H460, 96 h, 4 days, read-out: IC50 (nM), inhibition of proliferation of NCI-H460
Experimental: (§1) The cells were seeded into 96-well cell culture plate with a density of 2000/4000 cells per well and incubated overnight in a 5% CO2 incubator at 37° C. […] 5 L diluent of each concentration was added to 120 μL of medium (25 times diluted) and mixed by shaking. The overnight cell plates were taken and the culture medium was removed, 195 μL of fresh medium was added to each well, and 5 μL of diluted medium containing the corresponding concentration of the test compound was added respectively (the final concentration of DMSO is 1%), and the culture plate was then placed in a 5% CO2 incubator at 37° C. for 4 days. After removing the original solution, 100 μL of fresh serum-free DMEM medium containing MTT (0.5 mg/mL) was added to each well, the culture was continued. […] Cell viability (%)=(ODcompound−ODbackground)/(ODDMSO−ODbackground)×100. GraphPad Prism 6.0 was used to analyze the data. The inhibitory activity of compounds on cell proliferation was plotted based on cell viability and the logarithm of compound concentration.

[4] = system: human colon cancer cell LoVo; experiment: MTT proliferation assay, LoVo; type: cell-based; details: for IC50: Homo sapiens, LoVo, 96 h, 4 days, read-out: IC50 (nM), inhibition of proliferation of LoVo
Experimental: as §1, with “5 μL” for “5 L”, “viability (%)=(ODcompound−ODbackground)/(ODDMSO-ODbackground)×100.” for “viability (%)=(ODcompound−ODbackground)/(ODDMSO−ODbackground)×100.”

T1 sequence (Q13535 whole entry): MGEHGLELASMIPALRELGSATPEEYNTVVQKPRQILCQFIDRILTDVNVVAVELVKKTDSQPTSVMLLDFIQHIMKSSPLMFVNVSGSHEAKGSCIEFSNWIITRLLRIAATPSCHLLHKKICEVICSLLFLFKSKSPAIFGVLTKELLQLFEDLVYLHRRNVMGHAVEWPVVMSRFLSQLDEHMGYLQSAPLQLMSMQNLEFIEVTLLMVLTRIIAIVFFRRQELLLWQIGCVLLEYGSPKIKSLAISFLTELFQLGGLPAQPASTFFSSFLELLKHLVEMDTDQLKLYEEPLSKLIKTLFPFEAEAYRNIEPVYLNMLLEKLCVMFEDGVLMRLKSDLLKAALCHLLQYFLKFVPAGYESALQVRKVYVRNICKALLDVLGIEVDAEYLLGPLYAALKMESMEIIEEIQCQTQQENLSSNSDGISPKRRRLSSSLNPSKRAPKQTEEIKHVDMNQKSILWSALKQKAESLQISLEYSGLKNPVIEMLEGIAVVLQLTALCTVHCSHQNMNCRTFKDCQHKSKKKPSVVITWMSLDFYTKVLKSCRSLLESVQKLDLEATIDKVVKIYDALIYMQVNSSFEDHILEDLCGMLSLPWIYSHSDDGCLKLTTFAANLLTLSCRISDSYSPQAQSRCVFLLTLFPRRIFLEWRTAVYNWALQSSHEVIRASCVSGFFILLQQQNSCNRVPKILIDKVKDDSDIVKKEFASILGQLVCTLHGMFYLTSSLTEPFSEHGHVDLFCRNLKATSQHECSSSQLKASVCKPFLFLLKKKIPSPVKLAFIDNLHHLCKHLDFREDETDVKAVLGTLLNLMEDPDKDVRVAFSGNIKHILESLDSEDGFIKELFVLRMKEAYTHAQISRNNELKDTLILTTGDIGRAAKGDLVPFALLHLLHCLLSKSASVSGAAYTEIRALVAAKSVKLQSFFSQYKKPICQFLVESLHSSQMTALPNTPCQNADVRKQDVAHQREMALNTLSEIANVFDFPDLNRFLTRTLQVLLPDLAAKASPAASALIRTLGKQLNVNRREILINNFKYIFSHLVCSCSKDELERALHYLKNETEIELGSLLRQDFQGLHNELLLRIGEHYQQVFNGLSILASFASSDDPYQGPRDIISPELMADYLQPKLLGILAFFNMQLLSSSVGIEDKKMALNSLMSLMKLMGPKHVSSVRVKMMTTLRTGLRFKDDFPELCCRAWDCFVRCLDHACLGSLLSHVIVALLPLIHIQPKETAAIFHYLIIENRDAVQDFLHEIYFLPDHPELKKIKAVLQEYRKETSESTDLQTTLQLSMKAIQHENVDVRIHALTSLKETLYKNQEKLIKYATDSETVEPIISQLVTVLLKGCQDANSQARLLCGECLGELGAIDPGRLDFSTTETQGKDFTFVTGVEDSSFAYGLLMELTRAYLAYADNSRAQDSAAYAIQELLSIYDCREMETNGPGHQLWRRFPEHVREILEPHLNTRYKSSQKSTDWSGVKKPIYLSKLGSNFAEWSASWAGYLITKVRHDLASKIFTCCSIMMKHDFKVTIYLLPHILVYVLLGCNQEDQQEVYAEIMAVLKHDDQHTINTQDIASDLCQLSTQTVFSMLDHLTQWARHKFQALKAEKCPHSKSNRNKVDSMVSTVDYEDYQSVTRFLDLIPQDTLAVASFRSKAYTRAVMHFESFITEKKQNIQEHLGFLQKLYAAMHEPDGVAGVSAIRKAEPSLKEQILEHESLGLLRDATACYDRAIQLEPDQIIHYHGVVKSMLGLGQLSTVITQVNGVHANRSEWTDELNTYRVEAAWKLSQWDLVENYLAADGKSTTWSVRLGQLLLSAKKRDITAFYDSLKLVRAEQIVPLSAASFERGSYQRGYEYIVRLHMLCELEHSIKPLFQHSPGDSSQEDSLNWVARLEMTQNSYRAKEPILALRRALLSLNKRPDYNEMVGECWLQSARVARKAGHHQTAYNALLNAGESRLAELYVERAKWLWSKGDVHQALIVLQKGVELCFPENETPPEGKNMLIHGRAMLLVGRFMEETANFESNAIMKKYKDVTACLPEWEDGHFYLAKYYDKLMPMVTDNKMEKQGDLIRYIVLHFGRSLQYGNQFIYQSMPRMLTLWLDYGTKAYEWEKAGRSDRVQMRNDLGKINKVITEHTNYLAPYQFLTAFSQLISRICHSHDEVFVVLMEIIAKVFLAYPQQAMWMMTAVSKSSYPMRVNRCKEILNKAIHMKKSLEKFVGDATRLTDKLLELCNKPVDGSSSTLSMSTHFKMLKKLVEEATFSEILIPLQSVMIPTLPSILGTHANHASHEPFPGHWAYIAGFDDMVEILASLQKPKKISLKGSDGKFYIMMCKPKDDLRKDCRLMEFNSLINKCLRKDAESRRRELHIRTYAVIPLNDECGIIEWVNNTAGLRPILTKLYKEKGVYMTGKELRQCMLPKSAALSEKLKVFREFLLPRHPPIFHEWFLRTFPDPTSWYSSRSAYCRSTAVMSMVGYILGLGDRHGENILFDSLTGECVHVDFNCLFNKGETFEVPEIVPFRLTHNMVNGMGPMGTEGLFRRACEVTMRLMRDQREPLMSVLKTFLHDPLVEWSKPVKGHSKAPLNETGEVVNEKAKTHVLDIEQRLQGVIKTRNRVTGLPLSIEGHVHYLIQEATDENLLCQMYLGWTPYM
T1 sequence (Q8WXE1 whole entry partner): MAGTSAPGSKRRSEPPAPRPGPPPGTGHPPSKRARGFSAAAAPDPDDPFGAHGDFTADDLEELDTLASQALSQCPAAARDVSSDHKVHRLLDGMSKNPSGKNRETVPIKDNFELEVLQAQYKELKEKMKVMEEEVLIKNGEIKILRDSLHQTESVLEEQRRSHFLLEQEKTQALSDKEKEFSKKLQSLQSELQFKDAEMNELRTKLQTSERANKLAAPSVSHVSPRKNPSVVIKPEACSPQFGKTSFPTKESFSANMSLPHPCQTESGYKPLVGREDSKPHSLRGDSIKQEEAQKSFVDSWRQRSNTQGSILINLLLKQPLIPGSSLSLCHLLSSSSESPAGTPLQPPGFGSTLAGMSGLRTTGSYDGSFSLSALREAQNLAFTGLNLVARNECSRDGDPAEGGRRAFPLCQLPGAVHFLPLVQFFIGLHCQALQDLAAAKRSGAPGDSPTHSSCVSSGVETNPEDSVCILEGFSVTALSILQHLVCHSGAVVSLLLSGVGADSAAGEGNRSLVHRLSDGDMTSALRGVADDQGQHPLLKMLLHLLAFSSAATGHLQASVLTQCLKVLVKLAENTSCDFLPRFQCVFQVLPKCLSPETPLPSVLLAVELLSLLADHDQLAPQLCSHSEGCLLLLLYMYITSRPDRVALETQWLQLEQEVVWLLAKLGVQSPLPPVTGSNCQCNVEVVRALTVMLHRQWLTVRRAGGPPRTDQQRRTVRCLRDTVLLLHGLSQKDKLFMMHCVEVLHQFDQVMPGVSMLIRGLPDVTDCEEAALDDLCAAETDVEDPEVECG

Structure (SMILES) | IC50 [2] [nM] | IC50 [3] [nM] | IC50 [4] [nM] | IC50 [1] [nM] | other results
C[C@@H]1COCCN1c1cc(-c2ccccc2F)c2ncc(-c3ccn[nH]3)n2n1 [Example 8, (R)-3-methyl-4-(8-(2-fluorophenyl)-3-(1H-pyrazol-5-yl)imidazo[1,2-b]pyridazin-6-yl)morpholine] | 1110 | 409 | – | – | –
C[C@@H]1COCCN1c1cc(-c2ccnn2C)n2ncc(-c3ccn[nH]3)c2n1 [Example 16, (R)-3-methyl-4-(7-(1-methyl-1H-pyrazol-5-yl)-3-(1H-pyrazol-5-yl)pyrazolo[1,5-a]pyrimidin-5-yl)morpholine] | 1370 | 527 | – | – | –
Cc1ccc(-c2cc(N3CCOC[C@H]3C)nn3c(-c4ccn[nH]4)cnc23)cn1 [Example 6, (R)-3-methyl-4-(8-(6-methylpyridin-3-yl)-3-(1H-pyrazol-5-yl)imidazo[1,2-b]pyridazin-6-yl)morpholine] | 914 | 322 | – | – | –
Cc1cc(S(C)(=O)=O)ncc1-c1cc(N2CCOC[C@H]2C)nn2c(-c3ccn[nH]3)ncc12 [Example 44, (R)-3-methyl-4-(4-(4-methyl-6-(methylsulfonyl)pyridin-3-yl)-7-(1H-pyrazol-5-yl)imidazo[1,5-b]pyridazin-2-yl)morpholine] | – | 289 | 138 | – | inhibition at 0.05 µM [1]: 58%
Cc1ncccc1-c1cc(N2CCOC[C@H]2C)nn2c(-c3ccn[nH]3)ncc12 [Example 42, (R)-3-methyl-4-(4-(2-methylpyridin-3-yl)-7-(1H-pyrazol-5-yl)imidazo[1,5-b]pyridazin-2-yl)morpholine] | – | 30.6 | 44.7 | 2 | –
C[C@@H]1COCCN1c1cc(-c2ccccc2F)c2cnc(-c3ccn[nH]3)n2n1 [Example 25, (R)-4-(4-(2-fluorophenyl)-7-(1H-pyrazol-5-yl)imidazo[1,5-b]pyridazin-2-yl)-3-methylmorpholine] | – | 40.4 | 61.9 | 7 | –
Cc1ccc(-c2cc(N3CCOC[C@H]3C)nn3c(-c4ccn[nH]4)ncc23)cn1 [Example 24, (R)-3-methyl-4-(4-(6-methylpyridin-3-yl)-7-(1H-pyrazol-5-yl)imidazo[1,5-b]pyridazin-2-yl)morpholine] | – | 27.8 | 34.4 | 2 | –
CCn1nccc1-c1cc(N2CCOC[C@H]2C)nn2c(-c3ccn[nH]3)ncc12 [Example 37, (R)-4-(4-(1-ethyl-1H-pyrazol-5-yl)-7-(1H-pyrazol-5-yl)imidazo[1,5-b]pyridazin-2-yl)-3-methylmorpholine] | – | 58.8 | 45 | 7 | –
Cc1nc([S+](C)[O-])ccc1-c1cc(N2CCOC[C@H]2C)nn2c(-c3ccn[nH]3)ncc12 (stereo partly drawn) [Example 50, (3R)-3-methyl-4-(4-(2-methyl-6-(methylsulfinyl)pyridin-3-yl)-7-(1H-pyrazol-5-yl)imidazo[1,5-b]pyridazin-2-yl)morpholine] | – | 86.8 | 59.9 | 16 | –
Cn1nccc1-c1cc(N2CCOCC2)nn2c(-c3ccn[nH]3)ncc12 [Example 11, 4-(4-(1-methyl-1H-pyrazol-5-yl)-7-(1H-pyrazol-5-yl)imidazol[1,5-b]pyridazin-2-yl)morpholine] | – | 159 | 168 | – | inhibition at 0.05 µM [1]: 63%
C[C@@H]1COCCN1c1cc(N2CCOCC2)c2cnc(-c3ccn[nH]3)n2n1 [Example 46, (R)-3-methyl-4-(4-morpholino-7-(1H-pyrazol-5-yl)imidazo[1,5-b]pyridazin-2-yl)morpholine] | – | 77.8 | 72.8 | 12 | –
C[C@@H]1COCCN1c1cc(N2CCOCC2)c2ncc(-c3ccn[nH]3)n2n1 [Example 9, (R)-3-methyl-4-(8-morpholino-3-(1H-pyrazol-5-yl)imidazo[1,2-b]pyridazin-6-yl)morpholine] | 1630 | 583 | – | – | –
CC(C)n1nccc1-c1cc(N2CCOC[C@H]2C)nn2c(-c3ccn[nH]3)cnc12 [Example 4, (R)-3-methyl-4-(8-(1-isopropyl-1H-pyrazol-5-yl)-3-(1H-pyrazol-5-yl)imidazo[1,2-b]pyridazin-6-yl)morpholine] | 1090 | 531 | – | – | –
C[C@H]1COCCN1c1cc(-c2ccnn2C)c2cnc(-c3ccn[nH]3)n2n1 [Example 33, (S)-3-methyl-4-(4-(1-methyl-1H-pyrazol-5-yl)-7-(1H-pyrazol-5-yl)imidazo[1,5-b]pyridazin-2-yl)morpholine] | – | 256 | 230 | – | inhibition at 0.05 µM [1]: 27%

Now from value to molecule, other results behind:

IC50 [2] [nM] | IC50 [3] [nM] | IC50 [4] [nM] | IC50 [1] [nM] | Structure (SMILES) | other results
1220 | 907 | – | – | C[C@@H]1COCCN1c1cc(-c2ccnn2C)c2ncc(-c3ccn[nH]3)n2n1 [Example 2, (R)-3-methyl-4-(8-(1-methyl-1H-pyrazol-5-yl)-3-(1H-pyrazol-5-yl)imidazo[1,2-b]pyridazin-6-yl)morpholine] | IC50 ([1]; read-out: IC50 (nM), inhibitory effects on ATR kinase activity): 938 nM; inhibitory effect on the proliferation of DU145 cell (in words) [2]: inhibitory effect; inhibitory effect on the proliferation of NCI-H460 cell (in words) [3]: inhibitory effect; inhibitory effect on the proliferation of LoVo cell (in words) [4]: inhibitory effect
1100 | 1040 | – | – | CCn1nccc1-c1cc(N2CCOC[C@H]2C)nn2c(-c3ccn[nH]3)cnc12 [Example 3, (R)-3-methyl-4-(8-(1-ethyl-1H-pyrazol-5-yl)-3-(1H-pyrazol-5-yl)imidazo[1,2-b]pyridazin-6-yl)morpholine] | –
2300 | 1110 | – | – | C[C@@H]1CN(c2cc(N3CCOC[C@H]3C)nn3c(-c4ccn[nH]4)cnc23)C[C@H](C)O1 [Example 10, (2S,6R)-2,6-dimethyl-4-(6-((R)-3-methylmorpholino)-3-(1H-pyrazol-5-yl)imidazo[1,2-b]pyridazin-8-yl)morpholine] | –
– | 78.6 | 87.3 | 15 | C[C@@H]1COCCN1c1cc(C2CC2)c2cnc(-c3ccn[nH]3)n2n1 [Example 32, (R)-4-(4-cyclopropyl-7-(1H-pyrazol-5-yl)imidazo[1,5-b]pyridazin-2-yl)-3-methylmorpholine] | –
– | 18.2 | 23.1 | 12 | C[C@@H]1COCCN1c1cc(-c2ccncc2F)c2cnc(-c3ccn[nH]3)n2n1 [Example 43, (R)-4-(4-(3-fluoropyridin-4-yl)-7-(1H-pyrazol-5-yl)imidazo[1,5-b]pyridazin-2-yl)-3-methylmorpholine] | –
1200 | 864 | – | – | C[C@@H]1COCCN1c1cc(-c2ccc(S(C)(=O)=O)cc2)c2ncc(-c3ccn[nH]3)n2n1 [Example 7, (R)-3-methyl-4-(8-(4-(methylsulfonyl)phenyl)-3-(1H-pyrazol-5-yl)imidazo[1,2-b]pyridazin-6-yl)morpholine] | –

Source: US12479848B2, “Substituted fused heteroaromatic bicyclic compounds as kinase inhibitors and the use thereof” (IMPACT THERAPEUTICS (SHANGHAI), INC, priority 2019, dated 2025)
